This note sets out measurements from a melting point compilation (Tetko et al.; mined from patent text by program, amines drawn as free bases though some values may be those of a salt).

A value given as a limit tells only on which side of the number the result lay.

The melting point is the temperature, or range, at which the solid turns liquid. Consider `Cc1cccc2c1N(CC(=O)N1CC3CCC(CC3)C1)C(=O)C(NC(=O)Nc1cccc(C=O)c1)N=C2c1ccccc1F` (stereo unspecified), for which the melting point lay within 237 to 242 °C.

For `C[C@]12CCC(=O)N[C@@H]1CCc1cc(Sc3cccc4cccnc34)ccc12`, the melting point is > 260 °C. As for `COc1ccc2nc(-c3ccc(OC)c(F)c3)cc(Cl)c2c1`, the figure is 112 to 116 °C; as for `CCCCOc1cc(C(=O)O)n(Cc2ccc(C(F)(F)F)cc2)n1`, 128 to 129 °C. Then `Cc1nc(N2C[C@H](C)N(Cc3ccc(F)cc3)C2=O)sc1C(=O)NCc1ccc(F)c(F)c1`, with 62 to 65 °C; and `Cc1nnc2ccc(-c3cccc(N(C)C(=O)C4CC4)c3)nn12`, with 169 to 172 °C; and `CCCCc1nc2cccc(CC(=O)O)c2n1Cc1ccc(-c2ccccc2-c2nnn[nH]2)cc1`, with 170 to 171 °C. On to `COc1cc(-c2ccc(C#N)cc2)oc1-c1ccc(C#N)cc1`, for which the melting point fell in the range of 257 to 258 °C. As for `CCCN(c1ccccc1)c1nc(C)nc(Cl)c1[N+](=O)[O-]`, the figure is 99.8 to 100 °C; as for `CNC(=O)CC1CN=C(c2cc3cc(Oc4ccc(S(C)(=O)=O)nc4)cc(OC)c3[nH]2)S1` (stereo unspecified), 201 to 202 °C. Then `Cc1cccc(C#CC2=CC(=NO)CCC2)n1`, with 166 to 168 °C. As for `COS(=O)(=O)c1ccc(Cl)cc1NC(=O)/C=C/c1ccc2ccccc2c1`, the figure is 178 to 180 °C; as for `CC(=O)c1cc(Cl)cc(Oc2ncccc2C(=O)NC[C@H]2CC[C@H](C(C)(C)O)CC2)c1`, 133 to 135 °C; as for `CC1(C)COP(=O)(O)OC1c1ccc2ccccc2c1` (stereo unspecified), 237 to 238 °C. The compound `COc1cccc([C@H]2CCCN2[S@@](=O)C(C)(C)C)c1` had a melting point of 45 to 50 °C. `CC(C)(C)c1ccc(NC(=O)c2ccccc2SSc2ccccc2C(=O)Nc2ccc(C(C)(C)C)cc2)cc1` yielded a melting point of 135 to 138 °C.

Turning to `CC(C)n1c(=O)n(C)c(=O)c2c(S(=O)(=O)CCCO)n(C3Cc4ccccc4C3)cc21`, the melting point lay in the range of 171 to 172 °C. Then `Cc1c(-c2ccc(OC(C)C)cc2)n(Cc2ccc(OCCO)cc2)c2ccc(OCc3ccccc3)cc12`, with 129 to 131 °C; and `C#CCOc1c(-c2ccccc2)c(=O)[nH]c2cc(Cl)ccc12`, with 183 to 185 °C. With `CC(Oc1ccccc1Cl)c1nnc(N)s1` (stereo unspecified), the melting point lay in the range of 160 to 164 °C. Then `CCCCCCCCCCCCCCCC(=O)NCCCC[C@H](N)C(=O)O`, with 240 to 245 °C; and `O=C1CCOc2c1ccc(O)c2Cc1ccccc1`, with 176 °C; and `COc1cc2c(cc1-c1c(C)nn(C)c1C)-c1c(-c3cccs3)c3c(n1CC2)C(=O)N(C(C)C)CCN(C(=O)OC(C)(C)C)C3`, with 232 to 234 °C.

`COc1cc(OC)c(-c2cc3ccccc3n2C)cc1C=CC(=O)c1ccc(S(N)(=O)=O)cc1` had a melting point of 148 to 150 °C. As for `N#Cc1cccc2c(C3CCCCC3)nccc12`, the figure is 94.7 °C; as for `CC(=O)Nc1c(C)ccc(N)c1C`, 195 to 197 °C. For `CC(C)c1nc(CCCl)n(C)c1Sc1cc(Cl)cc(Cl)c1`, the melting point fell in the range of 101 to 102 °C. Then `Cc1oc(-c2ccccc2)nc1COc1ccc(CON=C(CCCC(=O)O)c2ccccc2)cc1`, with 129 to 130 °C; and `O=C(NC1CC2CC(N3CCN(c4ccccc4)CC3)CC2C1)c1ccccc1` (stereo unspecified), with 211 to 212 °C. As for `CC(C)(C)OC(=O)c1ccccc1CCc1ccccc1N`, the figure is 58 to 59 °C; as for `Cc1cc(-c2noc(C(F)(F)F)n2)cc(C)c1OCCCc1ccc(CCl)nc1`, 79 to 81 °C; as for `C=C1C(O)C(CO)OC1n1ccc(NC(=O)c2ccccc2)nc1=O` (stereo unspecified), > 300 °C.

In turn, `O=C(CNC(=O)c1ccc(N2CCN(C(=O)c3ccccc3C(F)(F)F)CC2)nn1)c1ccccc1` showed a melting point of 196 to 198 °C. As for `CNS(=O)(=O)c1cc2c(cc1CC(=O)O)CCCC2`, the figure is 153 to 155 °C. Take `COCCOC(=O)CS(=O)C(C)c1ccc(-c2ccccc2F)cc1` (stereo unspecified): the melting point was in the range of 65 to 67 °C. As for `O=C1CN(c2ccccc2)C1=O`, the figure is 115 to 117 °C; as for `O=C(O)CCCc1ccc(S(=O)(=O)Nc2ccccc2)cn1`, 158 to 159 °C.

`c1cnc2cc[nH]c2c1` had a melting point of 126 to 128 °C. Then `CCOC(=O)c1c(Nc2cc(F)ccc2N)sc2ccccc12`, with 141 to 142 °C; and `Cc1c(CCC(=O)O)c2cc(Br)ccc2n1Cc1ccc(Br)cc1`, with 169 to 170 °C. As for `Nc1nc(SCc2ccccn2)nc(Cl)c1Br`, the melting point was in the range of 119 to 120 °C. In turn, `Cc1noc(NS(=O)(=O)c2ccc(NCC(=O)O)cc2-c2ccc(CC(C)C)cc2)c1C` registered a melting point of 73 to 78 °C. Then `O=C(O)/C=C/c1ccc(Oc2c(-c3ccccc3)c(C(F)(F)F)cc3ccccc23)cc1`, with 210 to 211 °C; and `Fc1ccc(Br)nc1Br`, with 47 to 48 °C; and `O=Cc1cccc(-c2ccoc2)n1`, with 59 to 61 °C. `Cc1cc(O)ccc1NC(=O)OC(C)(C)C` displayed a melting point of 143 to 144 °C.

Compound `O=C(OCc1ccccc1)c1cc(Cl)nc(Cl)c1` showed a melting point of 39 to 41 °C. The compound `COc1ccc(C(=O)Nc2ccc(C(C)=O)cc2)cc1` yielded a melting point of 222 to 223 °C. Then `Clc1cccc(-c2nnnn2Cc2cscn2)c1Cl`, with 153 to 154 °C; and `COc1cc(OC)nc(Oc2ccccc2C(=O)ON(C)C)n1`, with 71 to 72.5 °C; and `CNC(=O)Oc1cccc(NC(=O)C=C(C)OC)c1`, with 175 °C. Regarding `Cc1nc(-c2ccc(-c3ccc(C(=O)Nc4ccc5c(c4)OC(CN(C)C)CO5)cc3)c(C)c2)no1` (stereo unspecified), the melting point was 92 to 94 °C. As for `CC(C)Oc1ccc(Cc2ccc(NC3=NCCN3)cc2)s1`, the figure is 134 to 135 °C.

For the compound `Cc1cc(-c2nc3cccnn3c2-c2ccnc(NC(=O)c3ccc(N(C)C)cc3)c2)ccc1F`, the melting point is 245 to 246 °C. As for `Clc1cccc(CC[C@H]2CN(Cc3ccccc3)CCN2Cc2ccccc2)c1`, the figure is 56 to 60 °C; as for `O=S(=O)(NCc1ccnnc1)c1cc(Br)cs1`, 120 to 122 °C; as for `NCCN1CCC(c2n[nH]c3cc(F)ccc23)CC1`, 125 to 128 °C. The compound `COc1ccccc1-c1nc(C)c(-c2cccnc2)n1O` came in with a melting point of 105 to 120 °C. Then `CCCS(=O)c1ccc([N+](=O)[O-])c(N)c1` (stereo unspecified), with 128 to 130 °C; and `CCOC(=O)C1=CC(=O)CC(c2ccc(Cl)c(OC)c2F)N1` (stereo unspecified), with 116 to 118 °C; and `O=[N+]([O-])c1ccccc1OCc1ccc2ccccc2n1`, with 121 to 122 °C. Then `CC(=O)Nc1c(C)cc(F)cc1[N+](=O)[O-]`, with 167 to 172 °C; and `CN(C(CCN1C(=O)CNC1=O)C(=O)NO)S(=O)(=O)c1ccc(Oc2ccccc2)cc1` (stereo unspecified), with 146 to 147 °C; and `CCCC12CCC(=O)C=C1c1c(cc(OC)c(Cl)c1Cl)C2Br` (stereo unspecified), with 132 to 134 °C. For the compound `N#CC(N)C(=O)c1ccc(C=O)cc1` (stereo unspecified), the melting point was 122 to 125 °C. `CC(C)OC(=O)C(C(=O)Nc1nccs1)=C1SCS1` yielded a melting point of 174 to 175 °C.

As for `Cc1cccc(C2COc3cc(O)ccc3C2c2ccc(OCCN3CCCC3)cc2)c1` (stereo unspecified), the melting point is 85 to 90 °C. Then `O=C(O)CCCCCCCc1ccc(CCNC(=O)c2ccc(Cl)cc2)cc1`, with 145 to 148 °C. In turn, `CCOC(=O)CCc1ccc2c(c1)CC(CNC(=O)OC(C)(C)C)CC2` (stereo unspecified) gave a melting point of 69 to 71 °C.

`CCOCc1nc2c(N)nc3c4c2n1[C@@H](C)CN4CCC3` gave a melting point of 164 to 166 °C.

As for `N=C(Nc1ccc2c(C3CN4CCC3CC4)c[nH]c2c1)c1cccs1` (stereo unspecified), the melting point fell in the range of 144 to 146 °C. Consider `O=C(O)CCc1cnc2ccccc2c1`, for which the melting point lay in the range of 180 to 181 °C. As for `COc1ccc(CNc2ccccc2C(=O)Nc2ccc(Cl)c(C(F)(F)F)c2)cn1`, the figure is 108 to 110 °C; as for `Cc1cccc2c1N(CC(=O)N1CC3CCC(CC3)C1)C(=O)C(NC(=O)Nc1cccc(O)c1)N=C2c1ccccc1F` (stereo unspecified), 193 to 204 °C. As for `N#Cc1c[nH]c2cccc(O)c12`, the figure is 206 to 207 °C. In the case of `C#CCCn1ncc2c(N)c(C(=O)OCC)c(C)nc21`, the melting point fell in the range of 101 to 103 °C. For the compound `CCC(C)Nc1nc2ccccc2c(=O)o1` (stereo unspecified), the melting point lay within 122 to 123 °C. Then `CCc1[nH]n(C2CCCC2)c2nc(-c3ccc4c(c3)CCO4)nc(=O)c1-2`, with 253 to 254 °C. Then `Cc1csc2ccc(C3CCN(Cl)CC3)cc12`, with 57 to 61.5 °C; and `O=C(O)C#Cc1ccc(Cl)cc1Cl`, with 161 to 163 °C; and `CCOC(=O)C1=C(COCc2nccn2C)NC(C)=C(C(=O)OC)C1c1ccccc1Cl` (stereo unspecified), with 137 to 138 °C. For the compound `C[C@H]1CCCC(C)(C)[C@@H]1C(=O)c1ccc(C#N)c(C(F)(F)F)c1`, the melting point is 81.6 to 82.4 °C. Take `CCCn1c(=O)c2[nH]c(/C=C/c3ccccc3)nc2n(CCC)c1=O`: the melting point fell in the range of 259 to 261 °C. On to `Clc1cccc(C2=Nc3cccnc3Nc3ccccc32)c1`, for which the melting point was found to be 160 °C. As for `Cc1ccc(Cn2ccc(OCc3ccccc3)c(Br)c2=O)cc1`, the figure is 150 to 151 °C. Then `Cc1ccc(-c2ccccc2C2=NC(C)(C)CO2)cc1`, with 56 to 59 °C; and `CC(=O)N1N=C(c2ccc([N+](=O)[O-])cc2)c2cc(Cl)c(Cl)cc2CC1C` (stereo unspecified), with 198 to 200 °C. As for `CCN(CC)c1ccc(C2OC(=O)c3cc(N(C)C)ccc32)c(C)c1` (stereo unspecified), the figure is 123 to 125 °C. As to `Nc1ccc(CCNS(=O)(=O)c2cccc3[nH]nnc23)cc1`, the melting point fell in the range of 178 to 179 °C.

On to `COc1cc(CCCC2OC(=O)NC2=O)ccc1O` (stereo unspecified), for which the melting point lay in the range of 147 to 148 °C. `Cc1cccc(Br)c1C(=O)c1sc(Nc2ccc(N3CCOCC3)cc2)nc1N` displayed a melting point of 105 to 125 °C.
